Source: patent publication US20240122180A1, “FUNGICIDAL HALOMETHYL KETONES AND HYDRATES AND THEIR MIXTURES” (FMC Corporation, priority 2020, published 2024)

What follows are molecules tested on Puccinia recondita f. sp. tritici (the causal agent of wheat leaf rust) (assay: Test B: preventive spray on wheat seedlings, disease rating (100 = 100% control; * 50 ppm, ** 10 ppm, *** 250 ppm)). Settings: Puccinia recondita; 10 ppm test suspension; 100 = 100% disease control, 0 = no control.
Format: in vivo
Text: General protocol for preparing test suspensions for Tests A-E: the test compounds were first dissolved in acetone in an amount equal to 3% of the final volume and then suspended at the desired concentration (in ppm) in acetone and purified water (50/50 mix by volume) containing 250 ppm of the surfactant […] (polyhydric alcohol esters). The resulting test suspensions were then used in Tests A-E.
The test solution was sprayed to the point of run-off on wheat seedlings. The following day the seedlings were inoculated with a spore suspension of Puccinia recondita f. sp. tritici (the causal agent of wheat leaf rust) and incubated in a saturated atmosphere at 20° C. for 24 h, and then moved to a growth chamber at 20° C. for 6 days, after which time disease ratings were made.
Results for Tests A-E are given in Table A. In the Table, a rating of 100 indicates 100% disease control and a rating of 0 indicates no disease control (relative to the controls). An asterisk “*” or a double asterisk “**” or a triple asterisk “***” next to the rating value indicates a 50 ppm, 10 ppm and 250 ppm test suspension was used, respectively. A dash (-) indicates the compound was not tested.
For CCOC(=O)c1cnn(COCc2ccc(O/C=C(\OCC)C(F)(F)F)cc2)c1 [Compound 297, ethyl 1-[[4-[[(1Z)-2-ethoxy-3,3,3-trifluoro-1-propen-1-yl]oxy]phenylmethoxy]methyl]-1H-pyrazole-4-carboxylate], the pest or weed control at 10 ppm was 0%. CCCOC(=O)c1cnn(Cc2cccc(O/C=C(\OCC)C(F)(F)F)c2)c1 [Compound 331, propyl 1-[[3-[[(1Z)-2-ethoxy-3,3,3-trifluoro-1-propen-1-yl]oxy]phenyl]methyl]-1H-pyrazole-4-carboxylate] showed a pest or weed control at 10 ppm of 0%. O=Cc1cccc(OCC(O)(O)C(F)(F)F)c1 [compound 305] showed a pest or weed control at 10 ppm of 0%. For CCOC(=O)c1cnn(Cc2ccc(O/C=C(\OCC)C(F)(F)F)c(F)c2)c1 [Compound 262, ethyl 1-[[4-[[(1Z)-2-ethoxy-3,3,3-trifluoro-1-propen-1-yl]oxy]-3-fluorophenyl]methyl]-1H-pyrazole-4-carboxylate], the pest or weed control at 10 ppm was 0%. In the case of CCO/C(=C\Oc1cccc(Cn2cc(C(=O)OC)cn2)c1)C(F)(F)F [Compound 330, methyl 1-[[3-[[(1Z)-2-ethoxy-3,3,3-trifluoro-1-propen-1-yl]oxy]phenyl]methyl]-1H-pyrazole-4-carboxylate], the pest or weed control at 10 ppm is reported as 0%.

Same assay, conditions: Puccinia recondita; 10 ppm test suspension; wheat seedlings; 100 = 100% disease control
With CCOC(=O)c1cnn(CCc2ccc(O/C=C(\OCC)C(F)(F)F)cc2)c1 [Compound 132, ethyl 1-[2-[4-[[(1Z)-2-ethoxy-3,3,3-trifluoro-1-propen-1-yl]oxy]phenyl]ethyl]-1H-pyrazole-4-carboxylate] the pest or weed control at 10 ppm was 0%. With COCCOC(=O)c1cnn(Cc2ccc(OCC3(C(F)(F)F)OCCO3)cc2)c1 [Compound 162, 2-methoxyethyl 1-[[4-[[2-(trifluoromethyl)-1,3-dioxolan-2-yl]methoxy]phenyl]methyl]-1H-pyrazole-4-carboxylate] the pest or weed control at 10 ppm was 0%. For CCOC(=O)c1cnn(Cc2ccc(OCC3(C(F)(F)F)OCC(C)(C)O3)cc2)c1 (stereo not shown) [Compound 12, ethyl 1-[[4-[[4,4-dimethyl-2-(trifluoromethyl)-1,3-dioxolan-2-yl]methoxy]-phenyl]methyl]-1H-pyrazole-4-carboxylate], the pest or weed control at 10 ppm was 0%. N#CCCCOC(=O)c1cnn(Cc2ccc(OCC3(C(F)(F)F)OCCO3)cc2)c1 [Compound 171, 3-cyanopropyl 1-[[4-[[2-(trifluoromethyl)-1,3-dioxolan-2-yl]methoxy]phenyl]methyl]-1H-pyrazole-4-carboxylate] was tested, and the pest or weed control at 10 ppm was 0%. O=[N+]([O-])c1cccc(OCC2(C(F)(F)F)OCCO2)c1 [compound 165] gave a pest or weed control at 10 ppm of 0%. Work on CCOC(=O)c1ccn(Cc2ccc(O/C=C(\OCC)C(F)(F)F)cc2)n1 [Compound 231, ethyl 1-[[4-[[(1Z)-2-ethoxy-3,3,3-trifluoro-1-propen-1-yl]oxy]phenyl]methyl]-1H-pyrazole-3-carboxylate] yielded a pest or weed control at 10 ppm of 0%. With CC(C)COC(=O)c1cnn(Cc2ccc(OCC3(C(F)(F)F)OCCO3)cc2)c1 [Compound 126, 2-methylpropyl 1-[[4-[[2-(trifluoromethyl)-1,3-dioxolan-2-yl]methoxy]phenyl]methyl]-1H-pyrazole-4-carboxylate] the pest or weed control at 10 ppm was 0%. O=C(OCC1CC1)c1cnn(Cc2ccc(OCC3(C(F)(F)F)OCCO3)cc2)c1 [Compound 127, cyclopropylmethyl 1-[[4-[[2-(trifluoromethyl)-1,3-dioxolan-2-yl]methoxy]phenyl]methyl]-1H-pyrazole-4-carboxylate] showed a pest or weed control at 10 ppm of 0%.

Same assay, conditions: Puccinia recondita; 50 ppm test suspension; 100 = 100% disease control, 0 = no control
In the case of CCOC(=O)c1cnn(Cc2cccc(OCC(O)(O)C(F)(F)F)c2)c1 [Compound 266, ethyl 1-[[3-(3,3,3-trifluoro-2,2-dihydroxypropoxy)phenyl]methyl]-1H-pyrazole-4-carboxylate], the pest or weed control at 50 ppm is reported as 74%.

Same assay, conditions: Puccinia recondita; 50 ppm test suspension; wheat seedlings; 100 = 100% disease control
Work on N#Cc1cccc(OCC2(C(F)(F)F)OCCO2)c1 [compound 147] yielded a pest or weed control at 50 ppm of 0%. For CCOC(=O)c1cnn(Cc2cccc(OCC3(C(F)(F)F)OCCO3)c2)c1 [compound 146], the pest or weed control at 50 ppm was 0%.
